Assay results as given in patent US20220290237A1, “METHOD FOR PREDICTING THE RESPONSE OF ANTIPSYCHOTIC DRUGS” (INSERM (INSTITUT NATIONAL DE LA SANTÉ ET DE LA RECHERCHE …, priority 2019, published 2022).

Test system: total RNA from PBMCs
Assay: RNA-seq gene expression before and after 4 weeks of amisulpride treatment
Assay type: in vivo, human
Conditions: for FC, fold-change at week 4 relative to the expression level at inclusion: AC073172.1 / FC, fold-change at week 4 relative to the expression level at inclusion: AC092171.4 / FC, fold-change at week 4 relative to the expression level at inclusion: AC132872.1 / FC, fold-change at week 4 relative to the expression level at inclusion: ACSL5 / FC, fold-change at week 4 relative to the expression level at inclusion: AL133351.4 / FC, fold-change at week 4 relative to the expression level at inclusion: AL391832.3 / FC, fold-change at week 4 relative to the expression level at inclusion: ALG1L13P / FC, fold-change at week 4 relative to the expression level at inclusion: ALPL / FC, fold-change at week 4 relative to the expression level at inclusion: AP000640.1 / FC, fold-change at week 4 relative to the expression level at inclusion: C15orf54 / FC, fold-change at week 4 relative to the expression level at inclusion: CA4 / FC, fold-change at week 4 relative to the expression level at inclusion: CXCR6 / FC, fold-change at week 4 relative to the expression level at inclusion: CYSLTR2 / FC, fold-change at week 4 relative to the expression level at inclusion: DGAT2 / FC, fold-change at week 4 relative to the expression level at inclusion: DHRS13 / FC, fold-change at week 4 relative to the expression level at inclusion: FAT1 / FC, fold-change at week 4 relative to the expression level at inclusion: FBXL13 / FC, fold-change at week 4 relative to the expression level at inclusion: GALNT14 / FC, fold-change at week 4 relative to the expression level at inclusion: GUCY1B3 / FC, fold-change at week 4 relative to the expression level at inclusion: HOMER3 / FC, fold-change at week 4 relative to the expression level at inclusion: KAZN / FC, fold-change at week 4 relative to the expression level at inclusion: KIAA0319 / FC, fold-change at week 4 relative to the expression level at inclusion: LINC00963 / FC, fold-change at week 4 relative to the expression level at inclusion: NFE4 / FC, fold-change at week 4 relative to the expression level at inclusion: NLRP6 / FC, fold-change at week 4 relative to the expression level at inclusion: NLRP12 / FC, fold-change at week 4 relative to the expression level at inclusion: P2RY12 / FC, fold-change at week 4 relative to the expression level at inclusion: P4HA2 / FC, fold-change at week 4 relative to the expression level at inclusion: PLB1 / FC, fold-change at week 4 relative to the expression level at inclusion: SLC4A4 / FC, fold-change at week 4 relative to the expression level at inclusion: TRPC6 / FC, fold-change at week 4 relative to the expression level at inclusion: WLS: 4 weeks amisulpride
Description: The cohort analysed in this study was obtained from the OPTiMiSE clinical trial (http://www.optimisetrial.eu) (29). After providing written informed consent, 491 patients with a first episode psychosis were included and 453 started medication. All patients were diagnosed with schizophrenia, schizophreniform disorder or schizoaffective disorder according to the Diagnostic and Statistical Manual of Mental Disorders, Fourth Edition (DSM-IV) and confirmed on the basis of the Mini International Neuropsychiatric Interview Plus (M.I.N.I. Plus) (30) (table 4). At baseline, patients were medication-naïve or minimally-treated (any antipsychotic medication used for […] 2 weeks in the previous year or for a total of 6 weeks in their lifetime) and were ill for no longer than 2 years. Only subjects involved in the single-treatment arm (phase 1) of the trial were considered for this study (29). All patients were treated for 4 weeks with amisulpride (200-800 mg/day orally). At the end of the 4-week treatment, the blood concentration of antipsychotic used has been determined. This measurement provided a reliable indication of the treatment compliance of individual patients.
A DNase digestion procedure was added after extraction. Total RNA was purified using the RNA Clean & Concentrator™-5 kit following the manufacturer's instructions (Zymo Research Corp., Irvine, USA). RNA quantification was performed on a NanoDrop™ 8000 spectrophotometer, in duplicate. The quality and integrity of the RNA samples were assessed using an Agilent Bioanalyzer 2100 and the RNA6000 Nano Labchip kit (Agilent Technologies). Only samples with an RNA integrity number (RIN) higher than 7 were selected. Three hundred and seventy-six RNA samples fulfilled quality control criteria for RNA-seq analyses, corresponding to two RNA samples (one at inclusion and one after 4 weeks of treatment) for 188 subjects. Forty-eight additional RNAs were available for replication studies, in 24 independent subjects.
All libraries were prepared using the Illumina TruSeq Stranded Total RNA with Ribo-Zero Globin kit (Illumina Inc., San Diego, Calif., U.S.A.), which removes ribosomal RNA and globin mRNA. Libraries were prepared using one microgram of total RNA as initial input and following the standard protocols. After library quality control, 2×100 bp paired-end (PE) sequencing was performed on a HiSeq4000 system (Illumina), pooling a maximum of 6 samples on each lane, in order to reach 40 to 50 million of PE-reads for each sample. The Illumina pipeline was used to generate raw RNA sequencing data (fastq files) for each sample. Sequence quality controls were performed, using FastQC and in-house bioinformatics pipelines, from a sampling of 2×10 million reads in order to assess the levels of read duplicates, adapters, remaining rRNA and the GC content. Reads were trimmed for adapters and low-quality bases (Phred quality score <30) using Trimmomatic software (v.0.32). Reads were then mapped to the Genome Reference Consortium human genome assembly 37 (GRCh37) reference genome (hg19) using Tophat software (v.2.0.13). Read mapping quality was assessed using RNA-SeQC software. Then, gene-level quantification in read counts was performed by HTSeq software (v.0.6.1), using gene annotation from Ensembl v.86. All downstream analyses were conducted using the statistical software R (v.3.2.4) and Bioconductor R packages. Genes with counts-per million (cpm) below 1 in more than two third of the samples were considered unexpressed and removed from the analysis using edgeR package (v.3.12.1). Raw gene counts matrix has been normalized to account for differences in sequencing depth and RNA composition using the “median ratio” method implemented in the DESeq2 package (v.1.16.1). To avoid batch effects as confounding factors, all subjects had their 2 time-points in a same batch. […]

Structure (SMILES): CCN1CCCC1CNC(=O)c1cc(S(=O)(=O)CC)c(N)cc1OC (centres unmarked) [amisulpride, 4-amino-N-((1-ethyl-2-pyrrolidinyl)methyl)-5-(etgylsulfonyl)-2-methoxybenzamide]
- FC, fold-change at week 4 relative to the expression level at inclusion: AC073172.1 (good responders (n = 113)): 0.72
- FC, fold-change at week 4 relative to the expression level at inclusion: AC073172.1 (poor responders (n = 75)): 0.97
- FC, fold-change at week 4 relative to the expression level at inclusion: AC092171.4 (good responders (n = 113)): 0.85
- FC, fold-change at week 4 relative to the expression level at inclusion: AC092171.4 (poor responders (n = 75)): 1.06
- FC, fold-change at week 4 relative to the expression level at inclusion: AC132872.1 (good responders (n = 113)): 0.81
- FC, fold-change at week 4 relative to the expression level at inclusion: AC132872.1 (poor responders (n = 75)): 1.05
- FC, fold-change at week 4 relative to the expression level at inclusion: ACSL5 (good responders (n = 113)): 1.06
- FC, fold-change at week 4 relative to the expression level at inclusion: ACSL5 (poor responders (n = 75)): 0.99
- FC, fold-change at week 4 relative to the expression level at inclusion: AL133351.4 (good responders (n = 113)): 0.88
- FC, fold-change at week 4 relative to the expression level at inclusion: AL133351.4 (poor responders (n = 75)): 1.04
- FC, fold-change at week 4 relative to the expression level at inclusion: AL391832.3 (good responders (n = 113)): 0.88
- FC, fold-change at week 4 relative to the expression level at inclusion: AL391832.3 (poor responders (n = 75)): 1.00
- FC, fold-change at week 4 relative to the expression level at inclusion: ALG1L13P (good responders (n = 113)): 0.89
- FC, fold-change at week 4 relative to the expression level at inclusion: ALG1L13P (poor responders (n = 75)): 1.02
- FC, fold-change at week 4 relative to the expression level at inclusion: ALPL (good responders (n = 113)): 0.79
- FC, fold-change at week 4 relative to the expression level at inclusion: ALPL (poor responders (n = 75)): 1.09
- FC, fold-change at week 4 relative to the expression level at inclusion: AP000640.1 (good responders (n = 113)): 0.84
- FC, fold-change at week 4 relative to the expression level at inclusion: AP000640.1 (poor responders (n = 75)): 1.00
- FC, fold-change at week 4 relative to the expression level at inclusion: C15orf54 (good responders (n = 113)): 1.18
- FC, fold-change at week 4 relative to the expression level at inclusion: C15orf54 (poor responders (n = 75)): 1.07
- FC, fold-change at week 4 relative to the expression level at inclusion: CA4 (good responders (n = 113)): 0.76
- FC, fold-change at week 4 relative to the expression level at inclusion: CA4 (poor responders (n = 75)): 1.07
- FC, fold-change at week 4 relative to the expression level at inclusion: CXCR6 (good responders (n = 113)): 1.14
- FC, fold-change at week 4 relative to the expression level at inclusion: CXCR6 (poor responders (n = 75)): 1.03
- FC, fold-change at week 4 relative to the expression level at inclusion: CYSLTR2 (good responders (n = 113)): 1.13
- FC, fold-change at week 4 relative to the expression level at inclusion: CYSLTR2 (poor responders (n = 75)): 1.01
- FC, fold-change at week 4 relative to the expression level at inclusion: DGAT2 (good responders (n = 113)): 0.87
- FC, fold-change at week 4 relative to the expression level at inclusion: DGAT2 (poor responders (n = 75)): 1.08
- FC, fold-change at week 4 relative to the expression level at inclusion: DHRS13 (good responders (n = 113)): 0.87
- FC, fold-change at week 4 relative to the expression level at inclusion: DHRS13 (poor responders (n = 75)): 1.04
- FC, fold-change at week 4 relative to the expression level at inclusion: FAT1 (good responders (n = 113)): 1.27
- FC, fold-change at week 4 relative to the expression level at inclusion: FAT1 (poor responders (n = 75)): 1.20
- FC, fold-change at week 4 relative to the expression level at inclusion: FBXL13 (good responders (n = 113)): 0.85
- FC, fold-change at week 4 relative to the expression level at inclusion: FBXL13 (poor responders (n = 75)): 0.92
- FC, fold-change at week 4 relative to the expression level at inclusion: GALNT14 (good responders (n = 113)): 0.78
- FC, fold-change at week 4 relative to the expression level at inclusion: GALNT14 (poor responders (n = 75)): 1.04
- FC, fold-change at week 4 relative to the expression level at inclusion: GUCY1B3 (good responders (n = 113)): 1.14
- FC, fold-change at week 4 relative to the expression level at inclusion: GUCY1B3 (poor responders (n = 75)): 1.05
- FC, fold-change at week 4 relative to the expression level at inclusion: HOMER3 (good responders (n = 113)): 0.84
- FC, fold-change at week 4 relative to the expression level at inclusion: HOMER3 (poor responders (n = 75)): 1.09
- FC, fold-change at week 4 relative to the expression level at inclusion: KAZN (good responders (n = 113)): 0.83
- FC, fold-change at week 4 relative to the expression level at inclusion: KAZN (poor responders (n = 75)): 0.94
- FC, fold-change at week 4 relative to the expression level at inclusion: KIAA0319 (good responders (n = 113)): 0.83
- FC, fold-change at week 4 relative to the expression level at inclusion: KIAA0319 (poor responders (n = 75)): 0.94
- FC, fold-change at week 4 relative to the expression level at inclusion: LINC00963 (good responders (n = 113)): 0.91
- FC, fold-change at week 4 relative to the expression level at inclusion: LINC00963 (poor responders (n = 75)): 1.08
- FC, fold-change at week 4 relative to the expression level at inclusion: NFE4 (good responders (n = 113)): 0.83
- FC, fold-change at week 4 relative to the expression level at inclusion: NFE4 (poor responders (n = 75)): 0.95
- FC, fold-change at week 4 relative to the expression level at inclusion: NLRP6 (good responders (n = 113)): 0.81
- FC, fold-change at week 4 relative to the expression level at inclusion: NLRP6 (poor responders (n = 75)): 1.09
- FC, fold-change at week 4 relative to the expression level at inclusion: NLRP12 (good responders (n = 113)): 0.87
- FC, fold-change at week 4 relative to the expression level at inclusion: NLRP12 (poor responders (n = 75)): 1.08
- FC, fold-change at week 4 relative to the expression level at inclusion: P2RY12 (good responders (n = 113)): 1.14
- FC, fold-change at week 4 relative to the expression level at inclusion: P2RY12 (poor responders (n = 75)): 1.10
- FC, fold-change at week 4 relative to the expression level at inclusion: P4HA2 (good responders (n = 113)): 0.89
- FC, fold-change at week 4 relative to the expression level at inclusion: P4HA2 (poor responders (n = 75)): 1.04
- FC, fold-change at week 4 relative to the expression level at inclusion: PLB1 (good responders (n = 113)): 0.85
- FC, fold-change at week 4 relative to the expression level at inclusion: PLB1 (poor responders (n = 75)): 0.99
- FC, fold-change at week 4 relative to the expression level at inclusion: SLC4A4 (good responders (n = 113)): 1.15
- FC, fold-change at week 4 relative to the expression level at inclusion: SLC4A4 (poor responders (n = 75)): 0.93
- FC, fold-change at week 4 relative to the expression level at inclusion: TRPC6 (good responders (n = 113)): 1.26
- FC, fold-change at week 4 relative to the expression level at inclusion: TRPC6 (poor responders (n = 75)): 0.97
- FC, fold-change at week 4 relative to the expression level at inclusion: WLS (good responders (n = 113)): 0.87
- FC, fold-change at week 4 relative to the expression level at inclusion: WLS (poor responders (n = 75)): 0.98
- DEGs before vs after treatment that survived BH-correction (good responders only, FDR threshold of 0.1, 16,204 genes expressed in PBMCs): 32 genes
